16 molecules from PubChem BioAssay (NCI) can be followed below.

Test systems include BT-549 breast; DU-145 prostate; HS 578T breast; NCI/ADR-RES ovarian; PC-3 prostate.
Holding throughout (assay): DTP human tumour cell line panel, 48 h

Where “and” joins values, the source holds several entries; their conditions need not be identical. Identical values can stand only once.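 Compound exposure: 48 hours, 5 concentrations, 96-well plates. Here, GI50 denotes the concentration required for 50% inhibition of growth. TGI: total growth inhibition.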

In the case of `Nc1ccc(/C=C/C(=O)NCc2cc3cc(-c4ccc(C(=O)N5CCC(F)(F)CC5)cc4)cc(-c4ccc(F)cc4)c3o2)cn1`, the GI50 (commonly the concentration that inhibits growth by half) in the assay on BT-549 breast was 5.95 µM; in the assay with DU-145 prostate it was 4.15 µM; with HS 578T breast it was more than 100000 nM; in the assay with NCI/ADR-RES ovarian, 4910 nM; with PC-3 prostate it was 534 nM. The TGI in the assay with BT-549 breast, in the assay with DU-145 prostate, in the assay on HS 578T breast, with NCI/ADR-RES ovarian and with PC-3 prostate was more than 100 µM throughout.
Consider `CCCCn1c(-c2ccc(C(=O)O/N=C(\N)c3ccc4c(c3)OCO4)cc2)nc(-c2ccccc2)c1-c1ccccc1`, for which the GI50 is 2.61 µM in the assay with BT-549 breast; 1.65 µM in the assay on DU-145 prostate; 1880 nM in the assay on HS 578T breast; 1520 nM with NCI/ADR-RES ovarian; 2590 nM in the assay with PC-3 prostate. The concentration for total growth inhibition (TGI) (in general, the concentration giving total growth inhibition) was 7.84 µM with BT-549 breast; 3.21 µM with DU-145 prostate; 5.09 µM in the assay with HS 578T breast; 4.48 µM in the assay on NCI/ADR-RES ovarian; more than 100 µM in the assay on PC-3 prostate.
For `c1ccc2[nH]c(-c3ccc(Nc4nc(N5CCCCC5)nc(N5CCOCC5)n4)cc3)nc2c1`, the GI50 in the assay with BT-549 breast was 2.07 µM; with DU-145 prostate, 4.28 µM; with HS 578T breast, 2560 nM; in the assay on NCI/ADR-RES ovarian it was 4690 nM; in the assay with PC-3 prostate it was 3050 nM. The TGI in the assay on BT-549 breast is 5.2 µM; with DU-145 prostate, more than 100 µM; with HS 578T breast, 8.61 µM; with NCI/ADR-RES ovarian it was 55.2 µM; in the assay on PC-3 prostate it was 9.13 µM.
Consider `CCNC(=O)c1noc(-c2cc(C(C)C)c(O)cc2O)c1-c1ccc(CN2CCOCC2)cc1`, for which the GI50 is 8.36 µM with BT-549 breast; less than 0.0222 µM in the assay on DU-145 prostate; 2470 nM in the assay on HS 578T breast; 313 nM in the assay on NCI/ADR-RES ovarian; 64.8 nM in the assay on PC-3 prostate. In addition, the TGI with BT-549 breast is 30.4 µM; with DU-145 prostate, 21.1 µM; with HS 578T breast it was 56.9 µM; in the assay with NCI/ADR-RES ovarian, 44.1 µM; in the assay on PC-3 prostate, 66.6 µM.
For the molecule `COc1cnc2c(c1)C(=O)c1c-2n(CCCN2CCN(C)CC2)c(=O)c2cc([N+](=O)[O-])ccc12`, the GI50 is 0.22 µM with DU-145 prostate, 14500 nM in the assay on HS 578T breast and 323 nM with NCI/ADR-RES ovarian. Also, the TGI with DU-145 prostate is 0.587 µM; in the assay on HS 578T breast it was 31 µM; with NCI/ADR-RES ovarian, 5.82 µM.
In the case of `O=C(O)[C@@H](Cc1ccc2ccccc2c1)NC(=O)n1c2ccccc2c2ccccc21`, the GI50 with BT-549 breast was 2.85 µM; in the assay on DU-145 prostate, 3.4 µM; in the assay on HS 578T breast it was 2240 nM; in the assay with NCI/ADR-RES ovarian, 2830 nM; in the assay on PC-3 prostate, 1870 nM. Also, the TGI is 14.2 µM in the assay with BT-549 breast; more than 100 µM in the assay with DU-145 prostate; 59.6 µM in the assay on HS 578T breast; 9.65 µM with NCI/ADR-RES ovarian; 15.8 µM in the assay on PC-3 prostate.
Consider `O=C(O)[C@H](c1ccccc1)[C@@H](C(=O)O)c1ccccc1`, for which the TGI in the assay with BT-549 breast, in the assay on DU-145 prostate, in the assay with HS 578T breast, in the assay on NCI/ADR-RES ovarian and with PC-3 prostate was more than 100 µM each time.
On to `CCC1=CC2CN(C1)Cc1c([nH]c3ccccc13)[C@@](C(=O)OC)(c1cc3c(cc1OC)N(C)[C@H]1[C@@](O)(C(=O)OC)[C@H](OC(C)=O)[C@]4(CC)C=CCN5CC[C@]31[C@@H]54)C2` (stereo not given in full), for which the GI50 with BT-549 breast was < 0.005 µM and 0.043 µM; with HS 578T breast, 8.27 nM and 27.7 nM; in the assay on NCI/ADR-RES ovarian, 1050 nM and 1850 nM; with PC-3 prostate, less than 5 nM. Further, the TGI was 19.8 µM and 45.7 µM with HS 578T breast; 32.6 µM and > 100 µM in the assay on PC-3 prostate.
In the case of `O=C(O)c1ccccc1/C=N/N=C1c2ccccc2-c2ccccc21`, the total growth inhibition concentration (TGI) with BT-549 breast is more than 100 µM; with DU-145 prostate it was more than 100 µM; in the assay with HS 578T breast it was 34.7 µM; in the assay on NCI/ADR-RES ovarian, more than 100 µM; in the assay on PC-3 prostate, 83.4 µM.
As to `c1c[nH]c(CN2CCOCC2)n1`, the TGI in the assay on BT-549 breast, with DU-145 prostate, in the assay with HS 578T breast, with NCI/ADR-RES ovarian and with PC-3 prostate was more than 100 µM each time.
For the molecule `C[C@H]1CCCC(O)C(O)[C@@H]2C[C@H](O[Si](C)(C)C(C)(C)C)C[C@H]2[C@H](O[Si](C)(C)C(C)(C)C)C(O)C(O)C(=O)O1` (stereo not given in full), the GI50 is 20.1 µM with BT-549 breast, 28.3 µM in the assay with DU-145 prostate, 27200 nM in the assay with NCI/ADR-RES ovarian and 46100 nM in the assay with PC-3 prostate. In addition, the concentration for total growth inhibition (TGI) in the assay on BT-549 breast, in the assay with DU-145 prostate, in the assay with NCI/ADR-RES ovarian and with PC-3 prostate was more than 100 µM throughout.
For the molecule `CC(=O)c1ccc(O)c(CN(C2CCCCC2)C2CCCCC2)c1O`, the TGI in the assay on BT-549 breast, in the assay on DU-145 prostate, with HS 578T breast, in the assay on NCI/ADR-RES ovarian and in the assay with PC-3 prostate was more than 100 µM in each case.
With `Cc1ccc(-c2nc3nc(-c4ccc(F)cc4)nc(N4CCCNCC4)c3o2)cc1`, the GI50 in the assay with BT-549 breast is 1.66 µM; with DU-145 prostate it was 1.68 µM; in the assay on HS 578T breast, 1780 nM; in the assay on NCI/ADR-RES ovarian it was 1910 nM; in the assay on PC-3 prostate, 1560 nM. In addition, the TGI with BT-549 breast came out at 3.37 µM; with DU-145 prostate, 3.11 µM; in the assay on HS 578T breast it was 3.69 µM; in the assay with NCI/ADR-RES ovarian it was 3.63 µM; in the assay with PC-3 prostate it was 3.18 µM.
`O=S(=O)(CCCl)c1ccc(Cl)cc1`: the GI50 was 3.36 µM in the assay on BT-549 breast; 3.33 µM in the assay on DU-145 prostate; 3000 nM in the assay on HS 578T breast; 3860 nM with NCI/ADR-RES ovarian; 5820 nM in the assay with PC-3 prostate. For the same molecule, the TGI in the assay on BT-549 breast is 12.6 µM; in the assay on DU-145 prostate, 12.3 µM; in the assay with HS 578T breast, 19.2 µM; with NCI/ADR-RES ovarian, 40.6 µM; in the assay on PC-3 prostate, 22.9 µM.
With `O=C1OCC2=C1C(c1ccccc1)c1cc3c(cc1N2CCO)OCO3` (stereo not given), the GI50 in the assay on BT-549 breast is 4.93 µM; in the assay with DU-145 prostate, 10.6 µM; with HS 578T breast, 2720 nM; in the assay with NCI/ADR-RES ovarian, 2080 nM; in the assay on PC-3 prostate, 4660 nM. Also, the TGI in the assay on BT-549 breast is more than 50 µM; with DU-145 prostate it was more than 50 µM; in the assay with HS 578T breast it was 33.7 µM; in the assay on NCI/ADR-RES ovarian, 17.8 µM; with PC-3 prostate, more than 50 µM.
For the molecule `COc1cc(NCCCCCCCNC(C)C)c2nccc(C)c2c1`, the GI50 is 17.7 µM with BT-549 breast; 17 µM with DU-145 prostate; 17400 nM in the assay on HS 578T breast; 14300 nM in the assay with NCI/ADR-RES ovarian; 10500 nM with PC-3 prostate. Further, the TGI turned out to be 33.5 µM in the assay with BT-549 breast; 31.4 µM in the assay on DU-145 prostate; 39.7 µM in the assay on HS 578T breast; 28.4 µM in the assay with NCI/ADR-RES ovarian; 23.9 µM in the assay on PC-3 prostate.
